According to patent US20120157439A1, “RAF INHIBITOR COMPOUNDS AND METHODS OF USE THEREOF” (GENENTECH, INC., priority 2009, published 2012):
Like-named read-outs stand apart in the source and are kept apart here.

Biological target: T1, V600E full-length B-Raf (Homo sapiens, UniProt P15056, V600E)
T1 construct: 1 μM FSBA-MEK and 20 nM V600E full-length B-Raf; made in house; host or cells: sf9 insect cells (baculovirus)
Experiment: B-Raf IC50 Assay (B-RAF V600E inhibition assay, Example A)
Format: biochemical
Source text: Determining the activity of Raf in the sample is possible by a number of direct and indirect detection methods (US 2004/0082014). Activity of human recombinant B-Raf protein may be assessed in vitro by assay of the incorporation of radio labeled phosphate to recombinant MAP kinase (MEK), a known physiologic substrate of B-Raf, according to US 2004/0127496 and WO 03/022840. The activity/inhibition of V600E full-length B-Raf was estimated by measuring the incorporation of radio labeled phosphate from [γ-33P]ATP into FSBA-modified wild-type MEK (see Example A).
Activity of human recombinant B-Raf protein may be assessed in vitro by assay of the incorporation of radio labeled phosphate to recombinant MAP kinase (MEK), a known physiologic substrate of B-Raf, according to U.S. Patent Appl. Publication No. 2004/0127496 and WO 03/022840. Catalytically active human recombinant B-Raf protein is obtained by purification from sf9 insect cells infected with a human B-Raf recombinant baculovirus expression vector.
The activity/inhibition of V600E full-length B-Raf was estimated by measuring the incorporation of radio labeled phosphate from [γ-33P]ATP into FSBA-modified wild-type MEK. The […] assay mixtures contained 25 mM Na Pipes, pH 7.2, 100 mM KCl, 10 mM MgCl2, 5 mM β-glycerophosphate, 100 μM Na Vanadate, 4 μM ATP, 500 nCi [γ-33P]ATP, 1 μM FSBA-MEK and 20 nM V600E full-length B-Raf. Incubations were carried out at 22° C. in a Costar 3365 plate (Corning). Prior to the assay, the B-Raf and FSBA-MEK were preincubated together in assay buffer at 1.5× (20 μL of 30 nM and 1.5 μM, respectively) for 15 minutes, and the assay was initiated by the addition of 10 μL of […]. Following the 60-minute incubation, the assay mixtures were quenched by the addition of 100 μL of 25% TCA, the plate was mixed on a rotary shaker for 1 minute, and the product was captured on a Perkin-Elmer GF/B filter plate using a Tomtec Mach III Harvester. After sealing the bottom of the plate, 35 μL of Bio-Safe II (Research Products International) scintillation cocktail were added to each well and the plate was top-sealed and counted in a Topcount NXT (Packard).

[1] = B-Raf V600E assay of Example A: less than 100 nM, read-out: IC50
[2] = B-Raf V600E assay of Example A: less than about 1 μM, read-out: IC50
[3] = incorporation of radio labeled phosphate from [γ-33P]ATP into FSBA-modified wild-type MEK, 4 μM ATP, 20 nM V600E full-length B-Raf, 60-minute incubation, 22° C., read-out: BRAF V600E IC50

T1 sequence (P15056 whole entry V600E): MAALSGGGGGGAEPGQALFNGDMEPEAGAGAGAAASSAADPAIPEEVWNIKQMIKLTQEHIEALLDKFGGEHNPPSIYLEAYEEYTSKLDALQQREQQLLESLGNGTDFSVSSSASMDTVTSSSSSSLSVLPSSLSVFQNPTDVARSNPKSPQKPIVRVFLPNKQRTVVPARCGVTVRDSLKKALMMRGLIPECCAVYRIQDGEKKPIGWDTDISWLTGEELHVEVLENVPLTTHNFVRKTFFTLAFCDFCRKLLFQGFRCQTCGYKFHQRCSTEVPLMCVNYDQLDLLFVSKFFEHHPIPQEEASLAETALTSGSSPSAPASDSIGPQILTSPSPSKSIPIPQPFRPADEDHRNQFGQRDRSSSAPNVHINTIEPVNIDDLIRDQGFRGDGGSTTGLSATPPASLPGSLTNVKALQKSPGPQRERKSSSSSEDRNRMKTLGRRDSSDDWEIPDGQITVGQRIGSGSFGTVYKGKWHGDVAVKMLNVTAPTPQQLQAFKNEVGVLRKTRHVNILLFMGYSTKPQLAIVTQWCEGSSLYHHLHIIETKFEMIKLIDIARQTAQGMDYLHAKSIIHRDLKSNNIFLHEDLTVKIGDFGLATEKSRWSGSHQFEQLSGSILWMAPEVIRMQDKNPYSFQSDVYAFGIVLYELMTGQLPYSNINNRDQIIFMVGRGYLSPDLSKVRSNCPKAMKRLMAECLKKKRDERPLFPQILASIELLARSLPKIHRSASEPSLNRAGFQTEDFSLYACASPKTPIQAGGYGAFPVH

`CCCNc1ncnc2c(C(=O)Nc3c(F)ccc(NS(=O)(=O)CCC)c3Cl)csc12` [Example 45, 4-Propylamino-thieno[3,2-d]pyrimidine-7-carboxylic acid [2-chloro-6-fluoro-3-(propane-1-sulfonylamino)-phenyl]-amide] was tested, and the IC50 [1] was < 0.1 µM, the IC50 [2] was < 1 µM and the IC50 [3] was 0.0041 µM.

For `CCCS(=O)(=O)Nc1ccc(Cl)c(NC(=O)c2csc3c(NC4CCC(F)(F)CC4)ncnc23)c1Cl` [Example 80, 4-(4,4-Difluoro-cyclohexyl-amino)-thieno[3,2-d] pyrimidine-7-carboxylic acid [2,6-dichloro-3-(propane-1-sulfonyl-amino)-phenyl]-amide], the IC50 [2] was < 1 µM and the IC50 [3] was 0.419 µM.

For `CCCS(=O)(=O)Nc1ccc(F)c(NC(=O)c2csc3c(NCC4CC4)ncnc23)c1F` [Example 56, 4-(Cyclopropyl-methylamino)-thieno[3,2-d] pyrimidine-7-carboxylic acid [2,6-difluoro-3-(propane-1-sulfonylamino)-phenyl]-amide], the IC50 [1] was < 0.1 µM, the IC50 [2] was < 1 µM and the IC50 [3] was 0.0751 µM.

With `CCCS(=O)(=O)Nc1ccc(Cl)c(NC(=O)c2csc3c(NOC)ncnc23)c1Cl` [Example 65, 4-Methoxyamino-thieno[3,2-d]pyrimidine-7-carboxylic acid [2,6-dichloro-3-(propane-1-sulfonylamino)-phenyl]amide] the IC50 [1] was < 0.1 µM, the IC50 [2] was < 1 µM and the IC50 [3] was 0.0012 µM.

For `CCCS(=O)(=O)Nc1cc(F)c(F)c(NC(=O)c2csc3c(NCCF)ncnc23)c1F` [Example 89, 4-(2-Fluoro-ethylamino)-thieno[3,2-d] pyrimidine-7-carboxylic acid [2,3,6-trifluoro-5-(propane-1-sulfonyl-amino)e-phenyl]-amid], the IC50 [1] was < 0.1 µM, the IC50 [2] was < 1 µM and the IC50 [3] was 0.0037 µM.

`CCCS(=O)(=O)Nc1ccc(F)c(NC(=O)c2csc3c(NC(C)C)ncnc23)c1F` [Example 50, 4-Isopropyl-amino-thieno [3,2-d] pyrimidine-7-carboxylic acid [2,6-difluoro-3-(propane-1-sulfonylamino)-phenyl]-amide] was tested, and the IC50 [1] was < 0.1 µM, the IC50 [2] was < 1 µM and the IC50 [3] was 0.0365 µM.

With `CCCS(=O)(=O)Nc1ccc(Cl)c(NC(=O)c2csc3cncnc23)c1F` [Example 111, Thieno[3,2-d]pyrimidine-7-carboxylic acid [6-chloro-2-fluoro-3-(propane-1-sulfonylamino)-phenyl]-amide] the IC50 [1] was < 0.1 µM, the IC50 [2] was < 1 µM and the IC50 [3] was 0.0211 µM.

In the case of `CCCNc1ncnc2c(C(=O)Nc3c(F)ccc(NS(=O)(=O)CCC)c3F)csc12` [Example 49, 4-Propylamino-thieno[3,2-d] pyrimidine-7-carboxylic acid [2,6-difluoro-3-(propane-1-sulfonylamino)-phenyl]-amide], the IC50 [1] is reported as < 0.1 µM, the IC50 [2] is reported as < 1 µM and the IC50 [3] is reported as 0.0109 µM.

With `CCCS(=O)(=O)Nc1ccc(F)c(NC(=O)c2c[nH]c3c(N)ncnc23)c1F` [Example 102, 4-Amino-5H-pyrrolo[3,2-d]pyrimidine-7-carboxylic acid [2,6-difluoro-3-(propane-1-sulfonylamino)-phenyl]-amide] the IC50 [1] was < 0.1 µM, the IC50 [2] was < 1 µM and the IC50 [3] was 0.0206 µM.

`CCCS(=O)(=O)Nc1ccc(F)c(NC(=O)c2csc3c(N)ncnc23)c1Cl` [Example 5, 4-Amino-thieno[3,2-d] pyrimidine-7-carboxylic acid [2-chloro-6-fluoro-3-(propane-1-sulfonyl-amino)-phenyl]-amide] was tested, and the IC50 [1] was < 0.1 µM, the IC50 [2] was < 1 µM and the IC50 [3] was 0.00086 µM.

For `CCCS(=O)(=O)Nc1ccc(F)c(NC(=O)c2csc3c(NCCO)ncnc23)c1F` [Example 59, 4-(2-Hydroxy-ethylamino)-thieno[3,2-d] pyrimidine-7-carboxylic acid [2,6-difluoro-3-(propane-1-sulfonylamino)-phenyl]-amide], the IC50 [1] was < 0.1 µM, the IC50 [2] was < 1 µM and the IC50 [3] was 0.0571 µM.

For `CCCC(C)Nc1ncnc2c(C(=O)Nc3c(F)ccc(NS(=O)(=O)CCC)c3F)csc12` (stereo not drawn) [Example 51, 4-(1-Methyl-butylamino)-thieno[3,2-d] pyrimidine-7-carboxylic acid [2,6-difluoro-3-(propane-1-sulfonylamino)-phenyl]-amide], the IC50 [2] was < 1 µM and the IC50 [3] was 0.221 µM.

With `CCCS(=O)(=O)Nc1ccc(F)c(NC(=O)c2csc3c(NC4CCC4)ncnc23)c1F` [Example 55, 4-Cyclobutyl-amino-thieno [3,2-d] pyrimidine-7-carboxylic acid [2,6-difluoro-3-(propane-1-sulfonylamino)-phenyl]-amide] the IC50 [1] was < 0.1 µM, the IC50 [2] was < 1 µM and the IC50 [3] was 0.0455 µM.

For `CCCS(=O)(=O)Nc1cc(F)c(F)c(NC(=O)c2csc3c(NC4CCOCC4)ncnc23)c1F` [Example 94, 4-(Tetrahydro-pyran-4-ylamino)-thieno[3,2-d] pyrimidine-7-carboxylic acid [2,3,6-trifluoro-5-(propane-1-sulfonyl-amino)-phenyl]-amide], the IC50 [2] was < 1 µM and the IC50 [3] was 0.704 µM.

`CCCS(=O)(=O)Nc1cc(F)c(F)c(NC(=O)c2csc3c(NC4CC4)ncnc23)c1F` [Example 86, 4-Cyclopropyl-amino-thieno [3,2-d] pyrimidine-7-carboxylic acid [2,3,6-trifluoro-5-(propane-1-sulfonyl-amino)-phenyl]-amide] was tested, and the IC50 [1] was < 0.1 µM, the IC50 [2] was < 1 µM and the IC50 [3] was 0.0012 µM.

For `CCS(=O)(=O)Nc1ccc(F)c(NC(=O)c2csc3c(N)ncnc23)c1F` [Example 2, 4-Amino-thieno pyrimidine-7-carboxylic acid (3-ethanesulfonylamino-2,6-difluoro-phenyl)-amide], the IC50 [1] was < 0.1 µM, the IC50 [2] was < 1 µM and the IC50 [3] was 0.012 µM.

In the case of `CCCS(=O)(=O)Nc1cc(F)c(F)c(NC(=O)c2csc3c(NCC(F)F)ncnc23)c1F` [Example 90, 4-(2,2-Difluoro-ethylamino)-thieno[3,2-d] pyrimidine-7-carboxylic acid [2,3,6-trifluoro-5-(propane-1-sulfonyl-amino)-phenyl]-amide], the IC50 [1] is reported as < 0.1 µM, the IC50 [2] is reported as < 1 µM and the IC50 [3] is reported as 0.016 µM.

In the case of `Nc1ncnc2c(C(=O)Nc3c(F)ccc(NS(=O)(=O)CCCF)c3F)csc12` [Example 14, 4-Amino-thieno[3,2-d] pyrimidine-7-carboxylic acid [2,6-difluoro-3-(3-fluoro-propane-1-sulfonylamino)-phenyl]-amide], the IC50 [1] is reported as < 0.1 µM, the IC50 [2] is reported as < 1 µM and the IC50 [3] is reported as 0.0006 µM.

With `CC(C)CS(=O)(=O)Nc1ccc(F)c(NC(=O)c2csc3c(N)ncnc23)c1F` [Example 19, 4-Amino-thieno[3,2-d] pyrimidine-7-carboxylic acid [2,6-difluoro-3-(2-methyl-propane-1-sulfonylamino)-phenyl]-amide] the IC50 [1] was < 0.1 µM, the IC50 [2] was < 1 µM and the IC50 [3] was 0.0026 µM.

For `Nc1ncnc2c(C(=O)Nc3c(F)ccc(NS(=O)(=O)CC4CC4)c3F)csc12` [Example 18, 4-Amino-thieno[3,2-d] pyrimidine-7-carboxylic acid (3-cyclopropyl-methanesulfonyl-amino-2,6-di-fluoro-phenyl)-amide], the IC50 [1] was < 0.1 µM, the IC50 [2] was < 1 µM and the IC50 [3] was 0.0074 µM.

`O=C(Nc1c(Cl)ccc(NS(=O)(=O)CCCF)c1F)c1csc2c(NC3CC3)ncnc12` [Example 84, 4-Cyclopropyl-amino-thieno [3,2-d] pyrimidine-7-carboxylic acid [6-chloro-2-fluoro-3-(3-fluoropropane-1-sulfonyl-amino)-phenyl]-amide] was tested, and the IC50 [1] was < 0.1 µM, the IC50 [2] was < 1 µM and the IC50 [3] was 0.00025 µM.

In the case of `CCCS(=O)(=O)Nc1cc(F)c(F)c(NC(=O)c2csc3c(NC4COC4)ncnc23)c1F` [Example 87, 4-(Oxetan-3-ylamino)-thieno[3,2-d] pyrimidine-7-carboxylic acid [2,3,6-trifluoro-5-(propane-1-sulfonyl-amino)-phenyl]amid], the IC50 [1] is reported as < 0.1 µM, the IC50 [2] is reported as < 1 µM and the IC50 [3] is reported as 0.0151 µM.

With `CCCS(=O)(=O)Nc1cccc(NC(=O)c2csc3c(N)ncnc23)c1Cl` [Example 25, 4-Amino-thieno[3,2-d]pyrimidine-7-carboxylic acid[2-chloro-3-(propane-1-sulfonylamino)-phenyl]-amide] the IC50 [1] was < 0.1 µM, the IC50 [2] was < 1 µM and the IC50 [3] was 0.0072 µM.
